According to PubChem BioAssay AID1406 (The Scripps Research Institute Molecular Screening Center, 2008):
The source made the active and inactive calls.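 The calls were made as follows: active = STAT1 reporter activators whose half-maximal activating concentration EC50 is 10 µM or lower; inactive = EC50 above 10 µM or no activation.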

system: NIH 3T3 STAT1 luciferase reporter, luminescence; experiment: STAT1 reporter activators, potency curves, dose response, counter-screen for STAT3 activator project, cell-based, NIH 3T3, luciferase luminescence (AID 1406); conditions: not given

SMILES	EC50
c1ccc2c(CNC3CCCCCC3)c[nH]c2c1	> 55.7 µM (inactive)

same assay, conditions: cells stimulated with IFN-gamma at EC80

SMILES	EC50
Cc1ccc(CC(=O)Nc2nc3c(s2)CCCC3)cc1	> 55.7 µM (inactive)
COC(=O)c1n[nH]c2ccccc12	> 55.7 µM (inactive)
O=C(CCN1CCOCC1)N1CCc2c([nH]c3ccccc23)C1c1cccc(Cl)c1 (stereo not given)	> 55.7 µM (inactive)
COc1ccc(C)cc1NC(=O)c1[nH]c(C)c(C(C)=O)c1C	> 55.7 µM (inactive)
Nc1nnc(Cc2c[nH]c3ccccc23)s1	> 55.7 µM (inactive)
Cc1cc(-c2ccc(Cl)cc2)c(C#N)c(N)n1	> 55.7 µM (inactive)
Nc1ccccc1Sc1nc2ccccc2[nH]1	> 55.7 µM (inactive)
COc1cc(NC(=O)c2cc(-c3ccco3)on2)c(OC)cc1Cl	> 55.7 µM (inactive)
COc1ccccc1NC(=O)c1[nH]c(C)c(C(C)=O)c1C	> 55.7 µM (inactive)
COc1ccccc1C(=O)NNC(=S)Nc1ccccc1	> 55.7 µM (inactive)
CCOC(=O)C1(CC2CCCCO2)CCN(Cc2cc3ccccc3[nH]2)CC1 (stereo not given)	> 55.7 µM (inactive)
Cn1c(CNc2ccccc2O)nc2ccccc21	> 55.7 µM (inactive)
Cc1cccc2c1NC(=O)/C2=C\C(=O)c1cccs1	> 55.7 µM (inactive)
CCCNC(=O)Cn1c2ccccc2c2nc(=O)cc(C)n21	> 55.7 µM (inactive)
COCc1cc(=O)n2c(-c3ccccc3OC)n[nH]c2n1	> 55.7 µM (inactive)
Cc1c(C#N)c2ccccc2n1CC(=O)O	> 55.7 µM (inactive)
COc1ccc(C2c3[nH]c4ccccc4c3CCN2C(=O)c2cc3ncccn3n2)c(F)c1 (stereo not given)	> 55.7 µM (inactive)
Cc1cc(C)n(-c2nnc3n2N=C(c2c[nH]c4ccccc24)CS3)n1	> 55.7 µM (inactive)
CCCc1cc(C(=O)Nc2cc(OC)c(Cl)cc2OC)no1	> 55.7 µM (inactive)
O=C(COc1ccccc1Cl)Nc1cc(Cl)ccc1O	> 55.7 µM (inactive)
CCOc1ccc(CN2CCN(Cc3cc4ccccc4[nH]3)CC2CCO)cc1 (stereo not given)	> 55.7 µM (inactive)
COc1cc(NC(=O)c2cc(C(C)C)on2)c(OC)cc1Cl	> 55.7 µM (inactive)
Cc1nc(/N=C(\N)Nc2ccccc2)nc2ccccc12	> 55.7 µM (inactive)
CC(=O)NCCC(=O)N1CCc2c([nH]c3ccccc23)C1c1cccc(C)c1 (stereo not given)	> 55.7 µM (inactive)
CCn1c(C(=O)Nc2ccsc2C(=O)OC)cc2sc(Cl)cc21	> 55.7 µM (inactive)

SMILES	EC50
O=C(CCc1nnc(Cc2ccc3c(c2)OCO3)o1)NCc1nc2ccccc2s1	> 55.7 µM (inactive)
COCc1cc(C)nc2sc(C(=O)NN)c(-n3cccc3)c12	> 55.7 µM (inactive)
COCCNC(=O)C(=O)NNC(=O)c1ccccc1OC	> 55.7 µM (inactive)
CCC(CC)NC(=O)Cc1ccccc1[N+](=O)[O-]	> 55.7 µM (inactive)
Cn1nc(-c2ccc(Cl)cc2)c2cc(C(=O)NCC3CCCO3)sc21 (stereo not given)	> 55.7 µM (inactive)
Cc1ccccc1C1c2[nH]c3ccccc3c2CCN1C(=O)c1ccc(=O)n(C)n1 (stereo not given)	> 55.7 µM (inactive)
CN(C)C(CN1C(=O)C2CC=CCC2C1=O)c1cn(C)c2ccccc12 (stereo not given)	> 55.7 µM (inactive)
CCOc1ccccc1-c1n[nH]c(=S)o1	> 55.7 µM (inactive)
COc1ccc(CN2CCN(S(=O)(=O)c3ccc(C)cc3)CC2)cc1Br	> 55.7 µM (inactive)
COc1cccc(-c2nc(N3CCCCC3C)c3ccccc3n2)c1O (stereo not given)	> 55.7 µM (inactive)
CCOc1ccccc1C1CC(c2cccs2)=NN1S(C)(=O)=O (stereo not given)	> 55.7 µM (inactive)
O=C(Cc1cccs1)Nc1ccccn1	> 55.7 µM (inactive)
Cc1c(C(=O)NCc2cccnc2)oc2ccc(S(=O)(=O)N3CC(C)CC(C)C3)cc12 (stereo not given)	> 55.7 µM (inactive)
CCc1cc2c(NCCC(=O)O)nc(C)nc2s1	> 55.7 µM (inactive)
COc1cc(NC(=O)c2cc(C3CC3)on2)c(OC)cc1Cl	> 55.7 µM (inactive)
COc1ccc(-c2nc3scc(-c4ccccc4)n3n2)cc1	> 55.7 µM (inactive)
CN1C(=O)c2ccccc2C(C(=O)NCCCN2CCCC2=O)C1c1c[nH]c2ccccc12 (stereo not given)	> 55.7 µM (inactive)
O=C(Nc1nnc(-c2ccccc2Cl)o1)c1nc2ccccc2s1	> 55.7 µM (inactive)
CC(OC(=O)c1cccnc1SCc1cc(=O)n2ccccc2n1)c1ccccn1 (stereo not given)	> 55.7 µM (inactive)
CN1CCN(C(=O)CNc2ccc(C(F)(F)F)cc2[N+](=O)[O-])CC1	> 55.7 µM (inactive)
COCCCNC(=O)c1cc2c(-c3ccc(Cl)cc3)nn(C)c2s1	> 55.7 µM (inactive)
COc1ccccc1C(=O)NNC(=O)c1ccc(NC(=O)C(C)C)cc1	> 55.7 µM (inactive)
CCN1CCN(C(=O)c2cc3c(-c4ccc(Cl)cc4)nn(C)c3s2)CC1	> 55.7 µM (inactive)
CCC(=O)NCCSc1c[nH]c2ccccc12	> 55.7 µM (inactive)
CN1C(=O)/C(=C\c2cc(Br)cs2)c2ccccc21	> 55.7 µM (inactive)

SMILES	EC50
CC1=C(C)C(=O)C(N2CCOCC2)=CC1=O	> 55.7 µM (inactive)
COCCNC(=O)c1cc2c(-c3ccc(Cl)cc3)nn(C)c2s1	> 55.7 µM (inactive)
NC(=O)CSc1c[nH]c2ccccc12	> 55.7 µM (inactive)
CC1Cc2ccccc2N1Cc1cc(=O)n2ccsc2n1 (stereo not given)	> 55.7 µM (inactive)
CCC(C(=O)Nc1ccccc1OC)n1c(C(=O)OC)cc2ccsc21 (stereo not given)	> 55.7 µM (inactive)
CCCN(CCC)C(=O)Cn1c2ccccc2c2nc(=O)cc(C)n21	> 55.7 µM (inactive)
CCOc1cc(-c2ccc(N)c(OCC)c2)ccc1N	> 55.7 µM (inactive)
O=C(Cc1c[nH]c2ccccc12)Nc1nc2ccccc2[nH]1	> 55.7 µM (inactive)
COc1ccc(C2c3[nH]c4ccccc4c3CCN2C(=O)c2ccc(=O)n(C)n2)c(F)c1 (stereo not given)	> 55.7 µM (inactive)
CN(Cc1ccccc1)Cc1c[nH]c2ccccc12	> 55.7 µM (inactive)
O=C(Nc1ccccc1O)c1csc2c1CCCC2	> 55.7 µM (inactive)
O=C(O)C(Cc1c[nH]c2ccccc12)N1Cc2ccccc2C1=O (stereo not given)	> 55.7 µM (inactive)
COC(=O)c1sccc1NC(=O)c1cc2c(s1)CCCC2	> 55.7 µM (inactive)
Cc1nc2c(n1C1CCCCC1)C(=O)c1ccccc1C2=O	> 55.7 µM (inactive)
CC1CCN(C(=O)Cn2c(=O)n(CCc3ccccc3)c(=O)c3ccccc32)CC1	> 55.7 µM (inactive)
N#Cc1cn(CC(=O)O)c2ccccc12	> 55.7 µM (inactive)
CN(C)C(=O)COC(=O)/C=C/c1ccccc1[N+](=O)[O-]	> 55.7 µM (inactive)
COc1ccc(Cl)cc1NC(=O)Nc1ccc(Br)cn1	> 55.7 µM (inactive)
O=C(C1CCCN(S(=O)(=O)c2cccc3cccnc23)C1)N1CCc2ccccc21 (stereo not given)	> 55.7 µM (inactive)
Cc1nnc(NC(=O)c2oc3c(ccc4ccccc43)c2C)s1	> 55.7 µM (inactive)
COc1ccc(S(=O)(=O)Nc2nc3ccccc3s2)cc1OC	> 55.7 µM (inactive)
O=C(CCCSc1nc2ccccc2s1)NCc1ccco1	> 55.7 µM (inactive)
CC(=O)n1cc(Nc2ccc([N+](=O)[O-])cc2)c2ccccc21	> 55.7 µM (inactive)
CN1N=C(C(=O)N2CCc3c([nH]c4ccccc34)C2c2c(F)cccc2Cl)CCC1=O (stereo not given)	> 55.7 µM (inactive)
